Data from the supplement of paper PMC10307832.

Key:
Assay in all cases: relative viability (nuclei count vs DMSO), 5 days (fraction); higher = more cells survive
Tozasertib + Dasatinib = compound: Cc1cc(Nc2cc(N3CCN(C)CC3)nc(Sc3ccc(NC(=O)C4CC4)cc3)n2)n[nH]1 [Tozasertib] + Cc1nc(Nc2ncc(C(=O)Nc3c(C)cccc3Cl)s2)cc(N2CCN(CCO)CC2)n1 [Dasatinib] (partner 0.075 µM)
How it was run: (§1)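 Medians of duplicate plates are given as relative viability. That measure is the nuclei count in treated wells divided by the count in vehicle wells. Counts were taken on 4× images of lung cancer cell lines in 1536-well plates, 5 days after pin-tool dosing the day after seeding with one drug alone or a fixed anchor-drug dose plus five library-drug doses (not always all listed) in √10 steps.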

Tozasertib + OSI-027 = compound: Cc1cc(Nc2cc(N3CCN(C)CC3)nc(Sc3ccc(NC(=O)C4CC4)cc3)n2)n[nH]1 [Tozasertib] + COc1cccc2cc(-c3nc([C@H]4CC[C@H](C(=O)O)CC4)n4ncnc(N)c34)[nH]c12 [OSI-027] (partner 0.5 µM)
How it was run: as §1

Tozasertib + Alpelisib = compound: Cc1cc(Nc2cc(N3CCN(C)CC3)nc(Sc3ccc(NC(=O)C4CC4)cc3)n2)n[nH]1 [Tozasertib] + Cc1nc(NC(=O)N2CCC[C@H]2C(N)=O)sc1-c1ccnc(C(C)(C)C(F)(F)F)c1 [Alpelisib] (partner 2 µM)
How it was run: as §1

Tozasertib = compound: Cc1cc(Nc2cc(N3CCN(C)CC3)nc(Sc3ccc(NC(=O)C4CC4)cc3)n2)n[nH]1 [Tozasertib]
How it was run: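 MetaXpress counted nuclei in 4× images of lung cancer cell lines that had been fixed, permeabilised and Hoechst-stained in one step. Before that, cells in 1536-well plates were kept overnight at 37 °C, pinned with five √10-spaced library-drug doses on vehicle-anchored plates, and cultured 5 days without medium change. Viability takes treated-well nuclei over vehicle-well nuclei and uses the median across plates. Plates were accepted only at control CV below 25% and at least one doubling.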

Cell Line | relative viability (Tozasertib + Dasatinib; first compound 0.004 µM) | relative viability (Tozasertib + Dasatinib; first compound 0.01265 µM) | relative viability (Tozasertib + Dasatinib; first compound 0.04 µM) | relative viability (Tozasertib + Dasatinib; first compound 0.1265 µM) | relative viability (Tozasertib + OSI-027; first compound 0.004 µM) | relative viability (Tozasertib + OSI-027; first compound 0.01265 µM) | relative viability (Tozasertib + OSI-027; first compound 0.04 µM) | relative viability (Tozasertib + OSI-027; first compound 0.1265 µM) | relative viability (Tozasertib + Alpelisib; first compound 0.004 µM) | relative viability (Tozasertib + Alpelisib; first compound 0.01265 µM) | relative viability (Tozasertib + Alpelisib; first compound 0.04 µM) | relative viability (Tozasertib + Alpelisib; first compound 0.1265 µM) | relative viability (Tozasertib; 0.004 µM) | relative viability (Tozasertib; 0.01265 µM) | relative viability (Tozasertib; 0.04 µM) | relative viability (Tozasertib; 0.1 µM, anchor plate) | relative viability (Tozasertib; 0.1265 µM)
H3255 | 0.37 | 0.409 | 0.339 | 0.304 | 0.452 | 0.492 | 0.61 | 0.459 | 0.592 | 0.654 | 0.762 | 0.658 | 1.07 | 0.854 | 0.966 | 0.721 | 0.833
LXF-289 | 0.226 | 0.198 | 0.232 | 0.0943 | 0.695 | 0.731 | 0.779 | 0.441 | – | 1.05 | 0.955 | 0.615 | 1 | 0.972 | 0.943 | 0.199 | 0.759
A-427 | 0.774 | 0.692 | 0.76 | 0.426 | 0.457 | 0.478 | 0.48 | 0.332 | 1.06 | 1.1 | 1.17 | 0.751 | 1.04 | 0.911 | 1.08 | 0.212 | 0.505
LCLC-97TM1 | 0.809 | 0.695 | 0.948 | 0.783 | 0.571 | 0.507 | 0.526 | 0.371 | – | 0.247 | 0.32 | 0.207 | 1.07 | 0.94 | 0.906 | 0.236 | 0.396
HOP-62 | 0.676 | 0.615 | 0.672 | 0.668 | 0.902 | 0.844 | 0.941 | 0.793 | 1.05 | 0.887 | 0.937 | 0.937 | 1.02 | 0.992 | 0.987 | 0.398 | 0.88
HARA | 0.286 | 0.281 | 0.336 | 0.303 | 0.467 | 0.447 | 0.583 | 0.343 | 0.955 | 0.795 | 0.994 | 0.305 | 0.981 | – | 1.01 | 0.11 | 0.519
NCI-H1993 | 0.729 | 0.456 | 0.636 | 0.537 | 0.485 | 0.505 | 0.569 | 0.524 | 0.63 | 0.795 | 0.727 | 0.519 | 1.03 | 0.782 | 0.939 | 0.58 | 0.676
NCI-H460 | 0.546 | 0.546 | 0.62 | 0.318 | 0.855 | 0.645 | 0.668 | 0.519 | 0.544 | 0.435 | 0.449 | 0.293 | 1.01 | 0.955 | 1.04 | 0.415 | 0.868
BEN | 0.372 | 0.354 | 0.363 | 0.287 | 0.333 | 0.335 | 0.309 | 0.284 | 1.04 | 0.948 | 1.14 | 0.931 | 1.11 | 0.921 | 1.06 | – | 0.759
NCI-H727 | 0.386 | 0.38 | 0.378 | 0.286 | 0.75 | 0.536 | 0.683 | 0.539 | 0.739 | 0.554 | 0.639 | 0.482 | 1.15 | 0.879 | 1.11 | 0.667 | 0.78
NCI-H2170 | 0.565 | 0.501 | 0.546 | 0.445 | 0.639 | 0.713 | 0.792 | 0.628 | 0.721 | 0.769 | 0.838 | 0.679 | 0.964 | 1.01 | 0.954 | 0.755 | 0.893
EPLC-272H | 0.313 | 0.399 | 0.39 | 0.291 | 0.289 | 0.256 | 0.288 | 0.265 | 0.845 | 0.789 | 1.11 | – | 0.981 | – | 1 | 0.296 | 0.55
NCI-H2087 | 0.82 | 0.858 | 1.12 | 0.63 | 0.638 | 0.576 | 0.64 | 0.444 | 1.08 | 1.01 | 1.21 | 0.913 | 1.16 | 1.02 | 1.11 | 0.254 | 0.581
NCI-H1666 | 0.793 | 0.71 | 0.803 | 0.554 | 0.859 | – | 0.814 | 0.765 | 1.06 | 0.976 | 0.973 | 0.632 | 0.901 | 0.892 | 0.975 | 0.601 | 0.846
NCI-H2126 | 0.587 | 0.674 | 0.674 | 0.485 | 0.777 | 0.728 | 0.773 | 0.657 | 0.819 | 0.748 | 0.806 | 0.769 | 0.996 | 1.06 | 1.04 | 0.846 | 0.925
NCI-H322M | 0.263 | 0.263 | 0.257 | 0.224 | 0.546 | 0.502 | 0.561 | 0.412 | 0.732 | 0.749 | 0.904 | 0.848 | 0.92 | – | 1.02 | 0.493 | 0.682
